The text below walks through data of patent US9387192B2, “Combination of rocaglamide and apoptosis inducing substances for the treatment of cancer” (DKFZ DEUTCHERS KREBSFORSCHUNGSZENTRUM, priority 2008, dated 2016).

Data set [1] deals with mouse leukemic RMA T cells. Kind of data set: Activation-induced apoptosis in RMA cells in vitro. The format is cell-based. On the procedure:
(§1) The mouse lymphoma cell line RMA (van Hall et al., 2000), the human leukemic T cell lines DND-41 (contains a p53 mutation), Jurkat J16, Jurkat A3 and Jurkat A3 deficient in FADD (J-FADDdef) (purchased from American Type Culture Collection, ATCC, Manassas, USA) were cultured in RPMI 1640 medium (GIBCO laboratories, Grand Island, N.Y.) supplemented with 10% FCS, 50 μg/ml gentamicin (GIBCO), 6 mM HEPES (GIBCO, 1 M solution), and 2 mM L-glutamine (GIBCO, 200 mM solution) at 37° C. and 5% CO2. T cells were stimulated with either plate-bound αCD3 (OKT3 10 μg/ml) or PMA (5 ng/ml) plus ionomycin (0.5 μM).
(§2) Cells were plated in triplicates and treated for the indicated periods of time at 37° C. with different reagents as described in the figure legends. Rocaglamide derivatives used in this study were isolated from various Aglaia species to at least 98% purity determined by HPLC as reported previously (Schneider et al., 2000). The structures of the compounds were unequivocally elucidated based on their NMR and mass spectra as described before (Schneider et al., 2000). Apoptotic cell death was examined by two parameters: FSC/SSC index of apoptotic-like change in cell size and granularity by FACScan and by analysis of DNA fragmentation (Vermes et al., 2000).

For data set [2] the following is noted: cited from earlier work.
A further data set deals with RMA tumor. Kind of data set: RMA tumor graft in C57/BL6 mice. In kind it is in vivo, mouse. On the procedure: C57/BL6 mice were implanted subcutaneously in the right dorsal flank region with RMA (1×10^6 cells). One day after grafting, Roc-Q (1 mg/kg body weight, dissolved in DMSO and diluted in olive oil) was administered by intraperitoneal injection (i.p.) as indicated in the figure legend. The control group was treated in an analogous manner with the vehicle. The tumor size was measured with a micrometer caliper at the indicated times and the tumor volume (V) was calculated by the formula V=(a^2×b)/2, where “a” is the width and “b” is the length in mm (Mattern et al., 1998). All protocols using and maintaining animals were approved by the German Animal Protection Authority (Office Regierungspräsidium Karlsruhe). Treated and control animals were compared for differences in tumor growth after end of treatment using the non-parametric method in a one-sided statistical test at the significance level of 0.05 (Koziol et al., 1981).
To investigate whether the effect of Roc on activation-induced cell death is also occurred in vivo, RMA cells were grafted subcutaneously into the C57/BL6 mice. One day after xenografting, the mice were randomly separated into four groups (each group contains 5 mice). One group with no treatment was taken as a control, and the other three groups received Con A, Roc-Q, or a combination of Roc-Q and Con A, respectively, three times per week by intraperitoneal injection (i.p.). Two independent experiments were carried out. In the first experiment, RMA (10×10^5 cells)-grafted mice were treated with or without 1 mg/kg body weight of Roc-Q in the presence or absence of Con A as described in FIG. 4A. No toxicity was seen up to a dose of 10 mg/kg body weight (Lee et al., 1998). Acute toxicity was reported with an LD50 of >300 mg/kg (Umezawa et al., 1997). […] In this experiment, the control mice developed tumors after 9 days.

A short description of data set [3]: Glutamate pyruvate transaminase (GPT) liver toxicity in mice. The format is in vivo, mouse. The note with it: RMA-grafted mice treated with Roc-Q, Con A or both; normal GPT below 50 U/l. The procedure: To examine the liver toxicity of Rocaglamide, the activities of GPT were determined from the heparinized blood of mice by test strips Reflotron® GPT as described by the instruction of the manufacture (Roche 10745138). The normal levels of GPT activity should be below 50 U/l.

The test system of data set [4] is MiaPaca pancreatic carcinoma cell line. As to the kind of experiment: Apoptosis (Nicoletti) in MiaPaca with anticancer reagents. The note with it: Roc-A 50 nM with different doses of anticancer reagents, 48 h. The format is cell-based. On the procedure:
(§3) Pancreatic carcinoma cell lines MiaPaca and Capan-1 were treated with Roc-A (50 nM) in combination with different doses of anticancer reagents for 48 h. Apoptotic cell death was determined by Nicoletti (DNA-fragmentation). The leukemia cell line Jurkat was treated with either TNFα (20 ng/ml) or TRAIL (2 ng/ml) in combination with different doses of rocaglamide as indicated for 24 h. Apoptotic cell death was determined by FSC/SSC.

For data set [5], the system named is human leukemic Jurkat T cells. As to the kind of experiment: Apoptosis (FSC/SSC, DNA fragmentation) in Jurkat T cells. In kind it is cell-based. The procedure: as §1, §2
Data set [6] deals with normal peripheral blood T cells. Kind of data set: Activation-induced cell death in normal peripheral blood T cells (day 0, day 6). The format is cell-based, human. The procedure: Human peripheral T cells were prepared as described previously (Klas et al., 1993) and were more than 90% CD3 positive. For activation, resting T cells (day 0) were cultured at 2×10^6 cells/ml with 1 μg/ml PHA for 16 h (day 1). Day 1 T cells were then washed three times and cultured for an additional 5 days in the presence of 25 U/ml IL-2 (day 6).
as §2

Data set [7] concerns human leukemic DND-41 T cells (p53 mutation). Kind of data set: Apoptosis in DND-41 T cells. In kind it is cell-based. On the procedure: as §1, §2
Data set [8] has as its system Capan-1 pancreatic carcinoma cell line. Kind of data set: Apoptosis (Nicoletti) in Capan-1 with anticancer reagents. In kind it is cell-based. Particulars: Capan-1, Roc-A 50 nM with different doses of anticancer reagents, 48 h. The procedure: as §3
For data set [9], the system named is caspase-8, -9, -3, Bid, PARP. Kind of data set: Western blot of apoptotic pathway proteins in Jurkat T cells. In kind it is cell-based, human. The note with it: 24 h. The procedure:
1×10^6 cells were sedimented and lysed for 15 min in ice-cold lyses buffer (29 mM Tris-HCl, pH 7.4, 137 mM NaCl, 10% (w/v) Glycerin, 1% (v/v) Triton X-100, 2 mM EDTA, 1 mM PMSF, 0.4 mM […], 10 mM NaF, complete protease inhibitor cocktail, Roche). After removing the cell debris by centrifugation at 13,000 rpm for 15 min, equal amounts of proteins were separated on a 12% SDS-PAGE, blotted onto a nitrocellulose membrane (Amersham Biosciences, Little Chalfon, UK) and blocked with 5% non-fat drymilk in PBS/Tween (0.05% Tween-20 in PBS). […]

The test system of data set [10] is Hodgkin lymphoma cell line L1236. As to the kind of experiment: Apoptosis (DNA fragmentation) in L1236 cells. The note with it: L1236, TRAIL alone, different concentrations, 48 h. In kind it is cell-based, human. The procedure:
(§4) The human malignant cell lines used in this study are: the human leukemic T cell lines CEM and Jurkat (J16), the HTLV-1 ATL derived cell lines SP, MT-2, CHAMP, and ATL-3, and Hodgkin lymphoma derived cell lines L1236 and KM-H2. Human peripheral blood T cells were prepared as described previously (Zhu et al., 2009) and were more than 90% CD3 positive. All cells were cultured in RPMI 1640 medium (GIBCO laboratories, Grand Island, N.Y.) supplemented with 10% FCS, 50 μg/ml gentamicin (GIBCO), 6 mM HEPES (GIBCO, 1 M solution), and 2 mM L-glutamine (GIBCO, 200 mM solution) at 37° C. and 5% CO2.
(§5) Cells were plated in triplicates and treated for the indicated periods of time at 37° C. with different doses of Rocaglamide AR (Roc-AR) (>98% pure, assessed by HPLC) (Proksch et al., 2005), Superkiller-TRAIL (Alexis) or LZ-CD95L (Walczak et al., 1999) alone, or in combinations as indicated in figures. Apoptotic cell death was determined by analysis of DNA fragmentation (% DNA fragmentation) as previously described (Krueger et al., 2006). Specific apoptosis was calculated as (percentage of experimental apoptosis−percentage of spontaneous apoptosis)/(100−percentage of spontaneous apoptosis)×100.

For data set [11], the system named is HTLV-1-associated ATL cell lines SP, MT-2, ATL-3 and CHAMP. As to the kind of experiment: Apoptosis (DNA fragmentation) in HTLV-1-associated ATL cell lines. In kind it is cell-based, human. The note with it: HTLV-1-infected ATL cell lines, TRAIL alone, different concentrations. On the procedure:
as §4, §5

Data set [12] has as its system Hodgkin lymphoma cell line KM-H2. As to the kind of experiment: Apoptosis (DNA fragmentation) in KM-H2 cells. In kind it is cell-based, human. Particulars: KM-H2, TRAIL alone, different concentrations, 48 h. The procedure: as §4, §5
The test system of data set [13] is leukemia cell line Jurkat. Kind of data set: Apoptosis (FSC/SSC) in Jurkat with TNFα or TRAIL. In kind it is cell-based. The note with it: 24 h. The procedure: as §3

Where only a bound is given, the exact number is not on record here.

As to `CNC(=O)C1C(O)C2(O)c3c(OC)cc(OC)cc3OC2(c2ccc(OC)cc2)C1c1ccccc1` (centres unmarked) [Roc-Q], the “PMA/ionomycin- or Con A-stimulation induced cell death” value in data set [1] is listed as “enhanced”. The “dose up to which no toxicity was seen” value in data set [2] (Lee et al., 1998) is given as not above 10 mg/kg body weight. Moreover, the “acute toxicity LD50” value in [2] (Umezawa et al., 1997) is reported as more than 300 mg/kg. In addition, the “tumor size and tumor growth rate” value with RMA tumor (first experiment, 10×10^5 RMA cells, single agent only (Roc-Q 1 mg/kg or Con A 5 mg/kg) i.p. three times per week) is “No significant changes in tumor size and tumor growth rate”. Moreover, the tumor growth result with RMA tumor (first experiment, Roc-Q 1 mg/kg combined with Con A 5 mg/kg i.p.) is listed as “delayed tumor growth”; with RMA tumor (second experiment, 2.5×10^5 RMA cells, single agent only (Roc-Q 2.5 mg/kg or Con A 5 mg/kg) i.p.) it was “Significantly delayed tumor growth”. In the data set with RMA tumor (first experiment, Roc-Q 1 mg/kg combined with Con A 5 mg/kg i.p., final day), the tumor size entry was “reduced tumor sizes”. Besides, in the data set on RMA tumor (mice after treatment with Roc-Q, Con A or both), the body weight loss entry is reported as “no body weight loss”. In addition, the “tumor progression and tumor growth” value in the data set with RMA tumor (second experiment, Roc-Q 2.5 mg/kg combined with Con A 5 mg/kg, except for one mouse) was “further inhibition”. Besides, the “tumor size and tumor weight” value with RMA tumor (second experiment, Roc-Q alone 2.5 mg/kg) was “reduced tumor sizes and tumor weight”. The “liver toxicity (GPT activity)” value in data set [3] is given as “No liver toxicity”.
With Roc-A, the apoptotic cell death entry is on record as “synergistically increased the apoptic cell death” in data set [4]; “dose-dependent increase in apoptotic cell death” in data set [5] (Jurkat T cells stimulated with αCD3 or PMA/ionomycin in the presence of Roc-A); “enhanced apoptotic cell death” in [5] (Jurkat, Roc-A 50 nM combined with anti-CD95 antibody αAPO-1, 24 h); “enhanced apoptotic cell death” in data set [5] (Jurkat, Roc-A 50 nM combined with recombinant LZ-CD95L, 24 h); “dramatic increase in apoptotic cell death” in data set [7] (DND-41, combination of Roc-A and PMA/ionomycin stimulation); “synergistically increased the apoptic cell death” in [8]. Further, the toxicity entry in [6] (day 0 (resting) T cells, Roc-A alone 50 nM, 48 h) is “no toxicity”. Besides, the cell death result in [6] (day 0 T cells, Roc-A 50 nM with PMA/ionomycin, 48 h) is given as “did not increase cell death”. Further, in [6] (day 6 (pre-activated) T cells re-stimulated with PMA/ionomycin, Roc-A 50 nM), the PMA/ionomycin-induced cell death result is listed as “did not further enhance PMA/ionomycin-induced cell death”. In addition, the “cell death compared to Jurkat T cells” value in data set [7] (DND-41, Roc-A alone) is recorded as “more resistant”. In addition, the “PMA/ionomycin- or Con A-stimulation induced cell death” value in [1] is reported as “enhanced”. In addition, the “caspase and PARP cleavage (Western blot)” value in [9] (Roc-A alone) is “activation of caspase-9 and generation of a detectable amount of the active p17 caspase-3 product and weak PARP cleavage”. Besides, the “cleavage of caspase-8 (Western blot)” value in data set [9] (Roc-A with T-cell stimulation (PMA/ionomycin)) is on record as “strongly increased cleavages of caspase-8”.
For TRAIL, the TRAIL-mediated apoptosis result in data set [10] and in [12] was “completely resistant” throughout. Also, the TRAIL-induced apoptosis result in data set [11] is “resistant to TRAIL-induced apoptosis”.
For the compound `COc1ccc([C@@]23Oc4cc(OC)cc(OC)c4[C@]2(O)[C@H](O)[C@H](C(=O)N(C)C)[C@H]3c2ccccc2)cc1` [rocaglamide], the apoptotic cell death entry in [13] (TNFα 20 ng/ml with different doses of rocaglamide) and in [13] (TRAIL 2 ng/ml with different doses of rocaglamide) was “synergistically increased the apoptic cell death” throughout.
